In the supplement of paper PMC4862054:
Where “and” joins values, the source holds several entries; their conditions need not be identical. Identical values can stand only once.

Tests used:
Settings in all cases: incubation time: 72 h
MDA-MB-453 [1] = experiment: normalised viability (% of control), CellTiter-Blue; higher = more viable cells (about 100 = DMSO control)
Procedure: (§1)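 DSRT, CellTiter-Blue viability, 72 h incubation. Signal is normalised to DMSO and benzethonium chloride controls. Value is the normalised response at dose 9.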

CAL-51 [2] = experiment: as above
Procedure: as §1

HDQ-P1 [3] = experiment: as above
Procedure: as §1

CAL-148 [4] = experiment: as above
Procedure: as §1

DU-4475 [5] = experiment: as above
Procedure: as §1

CAL-85-1 [6] = experiment: as above
Procedure: as §1

CAL-120 [7] = experiment: normalised viability (% of control), CellTiter-Blue; higher = more viable cells (100 = DMSO, 0 = benzethonium chloride kill control)
Procedure: (§2)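 DSRT, CellTiter-Blue viability, 72 h incubation. Signal is normalised to DMSO and benzethonium chloride controls. Value is the normalised response at dose 1.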

MDA-MB-453 [8] = experiment: as above
Procedure: as §2

MFM-223 [9] = experiment: as above
Procedure: as §2

MDA-MB-468 [10] = experiment: as above
Procedure: as §2

CAL-51 [11] = experiment: as above
Procedure: as §2

CAL-148 [12] = experiment: as above
Procedure: as §2

BT-474 [13] = experiment: as above
Procedure: as §2

HCC1937 [14] = experiment: as above
Procedure: as §2

HCC1599 [15] = experiment: as above
Procedure: as §2

MDA-MB-436 [16] = experiment: as above
Procedure: as §2

SK-BR-3 [17] = experiment: as above
Procedure: as §2

DU-4475 [18] = experiment: as above
Procedure: as §2

CAL-85-1 [19] = experiment: as above
Procedure: as §2

HCC1143 [20] = experiment: as above
Procedure: as §2

Hs578T [21] = experiment: as above
Procedure: as §2

BT-549 [22] = experiment: as above
Procedure: as §2

MDA-MB-231 [23] = experiment: as above
Procedure: as §2

CAL-120 [24] = experiment: normalised response (% of control), CellTiter-Glo; higher = more viable cells (100 = DMSO, 0 = benzethonium chloride kill control)
Summary of the method: (§3)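 Values are normalised signals, each belonging to one concentration of the series. Breast cancer cells (20 µl suspension) were seeded into 384-well plates with compound at 5 concentrations in 10-fold steps over a compound-specific 10,000-fold range and incubated 72 h. Readouts were CellTox Green fluorescence (485/520 nm), then CellTiter-Glo luminescence after 10 min at room temperature, with each plate set to 0.1 % DMSO as 100 and a positive kill control as 0.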

MDA-MB-453 [25] = experiment: as above
Summary of the method: as §3

MCF-10A = experiment: as above
Summary of the method: as §3

MFM-223 [26] = experiment: as above
Summary of the method: as §3

MDA-MB-468 [27] = experiment: as above
Summary of the method: as §3

CAL-51 [28] = experiment: as above
Summary of the method: as §3

HDQ-P1 [29] = experiment: as above
Summary of the method: as §3

CAL-148 [30] = experiment: as above
Summary of the method: as §3

BT-474 [31] = experiment: as above
Summary of the method: as §3

HCC1937 [32] = experiment: as above
Summary of the method: as §3

HCC1599 [33] = experiment: as above
Summary of the method: as §3

MDA-MB-436 [34] = experiment: as above
Summary of the method: as §3

SK-BR-3 [35] = experiment: as above
Summary of the method: as §3

DU-4475 [36] = experiment: as above
Summary of the method: as §3

CAL-85-1 [37] = experiment: as above
Summary of the method: as §3

HCC1143 [38] = experiment: as above
Summary of the method: as §3

Hs578T [39] = experiment: as above
Summary of the method: as §3

BT-549 [40] = experiment: as above
Summary of the method: as §3

MDA-MB-231 [41] = experiment: as above
Summary of the method: as §3

Question: How did the normalised viability (MDA-MB-453 [1]) turn out when COc1cc(Nc2ncc(F)c(Nc3ccc4c(n3)NC(=O)C(C)(C)O4)n2)cc(OC)c1OC [R406] (10000 nM) was run?
Answer: 110%

Question: What about the normalised viability (CAL-51 [2]) of the same compound?
Answer: 97.8%

Question: And the normalised viability (HDQ-P1 [3])?
Answer: 108%

Question: And the normalised viability (CAL-148 [4])?
Answer: 99.8%

Question: And the normalised viability (DU-4475 [5])?
Answer: 102%

Question: And the normalised viability (CAL-85-1 [6])?
Answer: 94.6%

Question: For O=P(O)(NCCCl)NCCCl [Ifosfamide mustard] (10000 nM), which normalised viability (MDA-MB-453 [1]) is on record?
Answer: 99.8%

Question: What about the normalised viability (CAL-51 [2]) of the same compound?
Answer: 94.3%

Question: And the normalised viability (HDQ-P1 [3])?
Answer: 105%

Question: What about the normalised viability (CAL-148 [4]) of the same compound?
Answer: 105%

Question: And the normalised viability (DU-4475 [5])?
Answer: 96.1%

Question: And the normalised viability (CAL-85-1 [6])?
Answer: 87.1%

Question: Which normalised viability (CAL-120 [7]) does the source give for CS(=O)(=O)CCNCc1ccc(-c2ccc3ncnc(Nc4ccc(OCc5cccc(F)c5)c(Cl)c4)c3c2)o1 [Lapatinib] (1 nM) here?
Answer: 83.3% and 87.2%

Question: And the normalised viability (MDA-MB-453 [8])?
Answer: 99.8% and 92.5%

Question: What about the normalised viability (MFM-223 [9]) of the same compound?
Answer: 96.7% and 95.1%

Question: What about the normalised viability (MDA-MB-468 [10]) of the same compound?
Answer: 108% and 114%

Question: And the normalised viability (CAL-51 [11])?
Answer: 116% and 104%

Question: And the normalised viability (CAL-148 [12])?
Answer: 97.7% and 107%

Question: And the normalised viability (BT-474 [13])?
Answer: 85.4% and 94.8%

Question: What about the normalised viability (HCC1937 [14]) of the same compound?
Answer: 99.3% and 105%

Question: What about the normalised viability (HCC1599 [15]) of the same compound?
Answer: 114% and 97.8%

Question: What about the normalised viability (MDA-MB-436 [16]) of the same compound?
Answer: 104% and 115%

Question: What about the normalised viability (SK-BR-3 [17]) of the same compound?
Answer: 92.7% and 105%

Question: What about the normalised viability (DU-4475 [18]) of the same compound?
Answer: 96.4% and 93.1%

Question: And the normalised viability (CAL-85-1 [19])?
Answer: 90.3% and 86.8%

Question: What about the normalised viability (HCC1143 [20]) of the same compound?
Answer: 87% and 88%

Question: And the normalised viability (Hs578T [21])?
Answer: 100% and 124%

Question: What about the normalised viability (BT-549 [22]) of the same compound?
Answer: 88.8% and 94.3%

Question: What about the normalised viability (MDA-MB-231 [23]) of the same compound?
Answer: 86.6% and 96.8%

Question: What about the normalised response (CAL-120 [24]) of the same compound?
Answer: 100%

Question: And the normalised response (MDA-MB-453 [25])?
Answer: 108%

Question: What about the normalised response (MCF-10A) of the same compound?
Answer: 99.3%

Question: What about the normalised response (MFM-223 [26]) of the same compound?
Answer: 107%

Question: What about the normalised response (MDA-MB-468 [27]) of the same compound?
Answer: 106%

Question: And the normalised response (CAL-51 [28])?
Answer: 77.7%

Question: And the normalised response (HDQ-P1 [29])?
Answer: 95.7%

Question: And the normalised response (CAL-148 [30])?
Answer: 110%

Question: What about the normalised response (BT-474 [31]) of the same compound?
Answer: 105%

Question: What about the normalised response (HCC1937 [32]) of the same compound?
Answer: 100%

Question: What about the normalised response (HCC1599 [33]) of the same compound?
Answer: 90.2%

Question: And the normalised response (MDA-MB-436 [34])?
Answer: 99.3%

Question: And the normalised response (SK-BR-3 [35])?
Answer: 116%

Question: And the normalised response (DU-4475 [36])?
Answer: 107%

Question: What about the normalised response (CAL-85-1 [37]) of the same compound?
Answer: 93.4%

Question: And the normalised response (HCC1143 [38])?
Answer: 105%

Question: And the normalised response (Hs578T [39])?
Answer: 104%

Question: And the normalised response (BT-549 [40])?
Answer: 95.4%

Question: What about the normalised response (MDA-MB-231 [41]) of the same compound?
Answer: 99.5%

Question: For c1ccc(C2CN3CCSC3=N2)cc1 (centres undefined) [Tetramisole] (10000 nM), which normalised viability (MDA-MB-453 [1]) is on record?
Answer: 99.5%

Question: And the normalised viability (CAL-51 [2])?
Answer: 89.3%

Question: What about the normalised viability (HDQ-P1 [3]) of the same compound?
Answer: 116%

Question: What about the normalised viability (CAL-148 [4]) of the same compound?
Answer: 117%

Question: What about the normalised viability (DU-4475 [5]) of the same compound?
Answer: 101%

Question: What about the normalised viability (CAL-85-1 [6]) of the same compound?
Answer: 98.1%
